# Where two headings read alike, the source gives them in different places.
# Assays:
# Assay type in all cases: in vivo
# [1] = test system: Echinochloa oryzoides (Ard.) Fritsch (early watergrass); test: Greenhouse in-water herbicidal activity, flooded pot system; settings: ECHOR 2-3 lf (20-30% submerged), 20 DAA
# Method: (§1) Weed seeds, nutlets, or vegetative cuttings of the desired test plant species were planted in puddled soil (mud) prepared by mixing a shredded, non-sterilized mineral soil (50.5 percent silt, 25.5 percent clay, and 24 percent sand, with a pH of approximately 7.6 and an organic matter content of approximately 2.9 percent) and water at a 1:1 volumetric ratio. The prepared mud was dispensed in 365 milliliter (mL) aliquots into 480 mL non-perforated plastic pots with a surface area of 86.59 square centimeters (cm^2) leaving a headspace of 3 centimeters (cm) in each pot. Mud was allowed to dry overnight prior to planting or transplanting.
# The aquatic environment was created by filling the 3 cm headspace of the pots with water. When required to ensure good germination and healthy plants, a fungicide treatment and/or other chemical or physical treatment was applied. The plants were grown for 4-20 days in a greenhouse with an approximate 14 hour (h) photoperiod which was maintained at about 29° C. during the day and about 26° C. during the night. Nutrients were added as Osmocote® (19:6:12, N:P:K+minor nutrients) at 2 grams (g) per 480 mL pot. […]
# Treatment requirements for each compound or herbicidal component were calculated based upon the rates being tested, the concentration of active ingredient or acid equivalent in the formulation, and a treatment application volume of 2 mL per compound per pot.
# Measured amounts of formulated compounds were placed in individual glass vials and were dissolved in an aliquot of an aqueous mixture containing 1.25% volume per volume (v/v) Agri-Dex® crop oil concentrate. […]
# (§2) The treated plants and control plants were placed in a greenhouse as described above and water was added as needed to maintain a flood in the pot. After approximately 20 days after application (DAA), the condition of the test plants, compared with that of the untreated plants, was determined visually and scored on a scale of 0 to 100 percent where 0 corresponds to no injury or growth reduction and 100 corresponds to complete kill.
# [2] = test system: Ischaemum rugosum Salisb. (saramollagrass)
# Method: as §1
# (§3) The aquatic environment was created by filling the 3 cm headspace of the pots with water. […] The plants were grown for 4-20 days in a greenhouse with an approximate 14 hour (h) photoperiod which was maintained at about 29° C. during the day and about 26° C. during the night. Nutrients were added as Osmocote® (19:6:12, N:P:K+minor nutrients) at 2 grams (g) per 480 mL pot. Water was added on a regular basis to maintain the paddy flood, and supplemental lighting was provided with overhead metal halide 1000-Watt lamps as necessary. The plants were employed for testing when they reached the second through fifth true leaf stage or 5th node stage.
# (§4) Treatments consisted of the benzyl ester of 4-amino-3-chloro-5-fluoro-6-(4-chloro-2-fluoro-3-methoxy-phenyl)pyridine-2-carboxylic acid (Compound II) formulated as a suspension concentrate (SC) and various herbicidal components alone and in combination.
# (§5) Measured amounts of formulated compounds were placed in individual glass vials and were dissolved in an aliquot of an aqueous mixture containing 1.25% volume per volume (v/v) Agri-Dex® crop oil concentrate. A stock solution was prepared for each treatment concentration. Applications were made by injecting an appropriate amount of the application solution into the aqueous layer of the flooded greenhouse pot. Control plants were treated in the same manner with the solvent blank.
# as §2
# [3] = test system: Alternanthera philoxeroides (Mart.) Griseb. (alligatorweed); test: Greenhouse in-water herbicidal activity, flooded pot system; settings: ALRPH 5 node, 20 DAA
# Method: as §1, §3, §4, §5, §2
# [4] = test system: Cyperus esculentus L. (yellow nutsedge); test: as above; settings: CYPES 4 lf (30% submerged), 20 DAA
# Method: as §1, §3, §4, §5, §2
# [5] = test system: Echinochloa crus-galli (L.) P. Beauv. (barnyardgrass); settings: ECHCG 2-5 lf (30% submerged), 20 DAA
# Method: as §1, §3, §4, §5, §2
# [6] = test system: Leptochloa chinensis (L.) Nees (Chinese sprangletop); settings: LEFCH 5 lf (30% submerged), 20 DAA
# Method: as §1, §3, §4, §5, §2
# [7] = 2100 ppb (elemental copper basis) in water
# [8] = 4200 ppb (elemental copper basis) in water
# [9] = 8300 ppb (elemental copper basis) in water
compound,measurement,setting,value
"c1cc[n+]2c(c1)-c1cccc[n+]1CC2 [Diquat Dibromide, 9,10-dihydro-8a,10a-diazoniaphenanthrene]",Diquat Dibromide Mean % Weed Control,[1]; 900 ppb in water,0.0%
same,Diquat Dibromide Mean % Weed Control,[2]; in vivo,0.0%
"O=C(O)C1C2CCC(O2)C1C(=O)O (centres unmarked) [Endothal, 7-oxabicyclo[2.2.1]heptane-2,3-dicarboxylic acid]",Endothal Mean % Weed Control,[3]; 1120 ppb in water,0.0%
same,Endothal Mean % Weed Control,[3]; 4480 ppb in water,0.0%
same,Endothal Mean % Weed Control,[3]; 8960 ppb in water,0.0%
same,Endothal Mean % Weed Control,[4]; 1120 ppb in water,0.0%
same,Endothal Mean % Weed Control,[4]; 4480 ppb in water,0.0%
same,Endothal Mean % Weed Control,"[2]; ISCRU 2-3 lf (30-50% submerged), 1120 ppb in water, 20 DAA",0.0%
same,Endothal Mean % Weed Control,"[2]; ISCRU 2-3 lf (30-50% submerged), 4480 ppb in water, 20 DAA",0.0%
"COc1c(Cl)ccc(-c2nc(C(=O)OCc3ccccc3)c(Cl)c(N)c2F)c1F [Compound II, benzyl 4-amino-3-chloro-5-fluoro-6-(4-chloro-2-fluoro-3-methoxyphenyl)pyridine-2-carboxylate]",Compound II Mean % Weed Control,[1]; 33.3 ppb in water,25.0%
same,Compound II Mean % Weed Control,[1]; 133.4 ppb in water,78.0%
same,Compound II Mean % Weed Control,[3]; 33.25 ppb in water,55.0%
same,Compound II Mean % Weed Control,[3]; 33.3 ppb in water,55.0%
same,Compound II Mean % Weed Control,[3]; 66.6 ppb in water,68.0%
same,Compound II Mean % Weed Control,[4]; 33.25 ppb in water,18.0%
same,Compound II Mean % Weed Control,[4]; 33.3 ppb in water,18.0%
same,Compound II Mean % Weed Control,[4]; 66.6 ppb in water,68.0%
same,Compound II Mean % Weed Control,[5]; 33.25 ppb in water,65.0%
same,Compound II Mean % Weed Control,"[2]; ISCRU 2-3 lf (30-50% submerged), 66.6 ppb in water, 20 DAA",75.0%
same,Compound II Mean % Weed Control,"[2]; ISCRU 2-3 lf (30-50% submerged), 133.4 ppb in water, 20 DAA",85.0%
same,Compound II Mean % Weed Control,[6]; 66.6 ppb in water,20.0%
"Cn1cc(-c2ccccc2)c(=O)c(-c2cccc(C(F)(F)F)c2)c1 [Fluridone, 1-methyl-3-phenyl-5-(α,α,α-trifluoro-m-tolyl)-4-pyridone]",Fluridone Mean % Weed Control,[3]; 180 ppb in water,65.0%
same,Fluridone Mean % Weed Control,[4]; 10 ppb in water,0.0%
same,Fluridone Mean % Weed Control,[4]; 45 ppb in water,0.0%
same,Fluridone Mean % Weed Control,[4]; 90 ppb in water,0.0%
same,Fluridone Mean % Weed Control,"[2]; ISCRU 2-3 lf (30-50% submerged), 10 ppb in water, 20 DAA",10.0%
same,Fluridone Mean % Weed Control,"[2]; ISCRU 2-3 lf (30-50% submerged), 45 ppb in water, 20 DAA",10.0%
mixed copper ethanolamine complex,Mixed Copper Ethanolamine Complex Mean % Weed Control,[3]; [7],0.0%
same,Mixed Copper Ethanolamine Complex Mean % Weed Control,[3]; [8],0.0%
same,Mixed Copper Ethanolamine Complex Mean % Weed Control,[3]; [9],0.0%
same,Mixed Copper Ethanolamine Complex Mean % Weed Control,[5]; [7],0.0%
same,Mixed Copper Ethanolamine Complex Mean % Weed Control,[5]; [8],0.0%
same,Mixed Copper Ethanolamine Complex Mean % Weed Control,[5]; [9],0.0%
same,Mixed Copper Ethanolamine Complex Mean % Weed Control,"[2]; ISCRU 2-3 lf (30-50% submerged), 8300 ppb (elemental copper basis) in water, 20 DAA",0.0%
same,Mixed Copper Ethanolamine Complex Mean % Weed Control,[6]; [8],0.0%
same,Mixed Copper Ethanolamine Complex Mean % Weed Control,[6]; [9],0.0%
copper(II) sulfate [Copper Sulfate],Copper Sulfate Mean % Weed Control,[3]; 300 ppb in water,0.0%
same,Copper Sulfate Mean % Weed Control,[3]; 600 ppb in water,0.0%
same,Copper Sulfate Mean % Weed Control,[3]; 900 ppb in water,0.0%
same,Copper Sulfate Mean % Weed Control,[4]; 300 ppb in water,0.0%
same,Copper Sulfate Mean % Weed Control,[4]; 600 ppb in water,0.0%
